The values below come from PubChem BioAssay (NCI).

What all share (assay): NCI tumour cell line growth inhibition, 48 h
Assay [1] deals with A549 NSCLC.
Assay [2] has as its system COLO 205 colon.
Assay [3] concerns IGROV1 ovarian.
The test system of assay [4] is MALME-3M melanoma.
The subject of assay [5] is MOLT-4 leukemia.
In assay [6] the test system is OVCAR-5 ovarian.
Assay [7] deals with SNB-19 CNS.
Assay [8] has as its system UACC-257 melanoma.
For assay [9], the system named is SN12C renal.
Assay [10] deals with MDA-MB-231 breast.

SMILES strings stand for the structures. ≈ marks a conversion by molar mass, not a printed value.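 Interpolation was linear, between the two tested concentrations surrounding the appropriate level; five concentrations were tested over 48 hours in 96-well plates. At the GI50, growth is halved. TGI denotes the concentration required for complete inhibition of growth.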

For `COC1=CC(=O)[C@@]2(C)C(C)[C@H](c3ccccc3)[C@H]2C1=O` (some centres not stated), the TGI in assay [1], in assay [2], in assay [3], in assay [4], in assay [5] and in [6] was over 100 µM each time. Also, the TGI in assay [7] and in [8] was over 100 µM in each case.
For `N#C/C(=C/c1ccc([N+](=O)[O-])o1)c1ccccc1`, the TGI in assay [1], in assay [2], in [4], in assay [5], in assay [6] and in assay [9] was over 100 µM throughout. The TGI in assay [7] and in [8] was over 100 µM throughout.
As for `Cc1cc2nc3c(N)nn(CCCN(C)C)c3nc2cc1C`, the TGI in [1], in assay [2], in assay [10], in assay [6], in assay [9] and in assay [7] was over 100 µM in each case. Moreover, the TGI in assay [8] is over 100 µM.
In the case of `O=C1C=C2SC3C[C@@]24CC1(O)[N+]1=c2c4c(c(O)c4c2=C(C=N4)CC1)N3`, the TGI in assay [1] worked out at 4.11 µM; in assay [2] it was 0.332 µM; in assay [3] it was 2.98 µM; in assay [5], 0.859 µM; in assay [6] it was 3.8 µM; in assay [9], 2 µM. The figures for the TGI in assay [7] and in assay [8] were 3.12 µM and 2.42 µM, respectively.
With `C=CCSC1=N/C(=C\c2ccc(C)cc2)C(=O)N1CC=C`, the TGI is 65.4 µM in assay [1]; 42 µM in assay [2]; over 100 µM in assay [3]; over 100 µM in [10]; over 100 µM in assay [6]; 28.2 µM in [9]. Also, the TGI was over 100 µM in assay [7] and 59.8 µM in assay [8].
For `O=[N+]([O-])c1ccc(N=P(c2ccccc2)(c2ccccc2)c2ccccc2)n2nnnc12`, the TGI in [1], in assay [2], in assay [3], in assay [4], in [5] and in assay [6] was over 100 µM each time. For the same compound, the TGI in assay [9], in assay [7] and in assay [8] was over 100 µM each time.
In the case of `CC(=O)OC1CCC2(C)C(CCC3C2CCC2(C)C(c4ccc(=O)oc4)C(OC(C)=O)CC32O)C1` (configuration not stated), the TGI in assay [1] was found to be 0.0157 µM; in assay [2], 0.162 µM; in [3], 0.169 µM; in [4], 0.017 µM; in assay [5], 0.0227 µM; in [6] it was 0.173 µM. The figures for the TGI in assay [9], in [7] and in assay [8] were 0.503 µM, 0.33 µM and 0.115 µM, respectively.
Regarding `O=C1CCNC/C1=C\c1ccccc1`, the TGI was 92.2 µM in [1]; over 100 µM in [2]; over 100 µM in assay [3]; over 100 µM in assay [5]; 81.3 µM in assay [6]; over 100 µM in assay [9]. Also, the TGI in assay [7] came to 46.4 µM; in assay [8], 58.8 µM.
Consider `CCCC(O)c1ccc2[nH]c3c(C)cc([N+](=O)[O-])c(C)c3c2c1` (configuration not stated), for which the TGI in [1], in assay [2], in assay [4], in assay [5], in assay [6] and in assay [9] was over 100 µM each time. In addition, the TGI in assay [7] and in [8] was over 100 µM throughout.
In the case of `O=C(CC(C(=O)c1ccsc1)c1cccs1)c1cccs1` (configuration not stated), the TGI in [1], in assay [2], in [3], in assay [4], in assay [5] and in assay [6] was over 100 µM throughout. Besides, the TGI in [9], in assay [7] and in assay [8] was over 100 µM each time.
Take `C=CC[PH+](c1ccccc1)c1ccccc1.C=CC[PH+](c1ccccc1)c1ccccc1.[Pt+2].[S-]c1nc2ccccc2[nH]1.[S-]c1nc2ccccc2[nH]1`: the figures for the GI50 in [2], in [5] and in assay [6] were 2.02 µM, 2.87 µM and 2.14 µM, respectively. Moreover, the TGI in assay [2] is 6.56 µM; in assay [5], over 100 µM; in [6], 5.42 µM.
Turning to `O=c1[nH]nc(-c2cccc([N+](=O)[O-])c2)[nH]1`, the TGI in assay [1], in assay [2], in assay [3], in [4], in [5] and in assay [6] was over 100 µM each time. The TGI in assay [9], in [7] and in [8] was over 100 µM throughout.
As to `c1c2c(cc3c1OCO3)-c1ncc3cc4c(cc3c1C2)OCO4`, the GI50 in [1] is 0.702 µM; in assay [2], under 0.0354 µM; in assay [5] it was 0.0147 µM; in [6], 44.7 µM; in assay [9] it was 0.0414 µM. The TGI in assay [1] is over 77 µM; in assay [3], over 100 µM; in [5] it was 0.152 µM; in [6], over 100 µM; in assay [9], over 100 µM; in assay [7], 43.6 µM.
Turning to `Cc1cc2c3ccccc3n3c2c2c1OC1(C)CCC(C2C1)C3(C)C` (configuration not stated), the TGI in [1], in assay [2], in assay [3], in assay [4], in [5] and in [6] was over 25 µM throughout. Also, the TGI in assay [9] and in assay [7] was over 25 µM each time.
As for `COc1ccc(N2C(=O)[C@@H]3[C@@H]4CC(C)CC[C@@H]4c4c([nH]c5ccccc45)[C@@H]3C2=O)cc1` (some centres not stated), the TGI in assay [1] was over 68.3 µM; in [2] it was over 55.1 µM; in assay [3], 49.7 µM; in assay [4], over 100 µM; in [5], 61.3 µM; in assay [6], over 100 µM. For the same compound, the TGI in assay [9] was 32.5 µM; in [7], 29.6 µM; in assay [8], over 100 µM.
Regarding `CCOC(=O)CN(CC)C(=O)NC12CC3CC(CC(C3)C1)C2`, the TGI in [1] is over 750 µM; in [2], 270 µM; in assay [3], over 750 µM; in [4] it was 378 µM; in assay [5], 436 µM; in [6], 545 µM. Further, the TGI in [9] is over 750 µM; in assay [7], over 750 µM; in [8], 433 µM.
Regarding `COC(=O)CC(=O)OC1C[C@@H]2CCC3C(C)(C)CCC[C@]3(C)C23CC[C@@]1(C)C3` (some centres not stated), the TGI is 65.1 µM in assay [1]; 33.9 µM in [2]; 31.8 µM in [3]; 32.7 µM in [4]; over 100 µM in assay [5]; 29.6 µM in [6]. In addition, the values for the TGI in assay [9], in assay [7] and in assay [8] were 31.3 µM, 31.6 µM and 35.3 µM, respectively.
As to `Cc1c2ccncc2c(C)c2c1[nH]c1ccc(O)cc12`, the TGI in assay [1] amounted to 0.397 µg/mL; in assay [2], 0.455 µg/mL; in [5], 0.0671 µg/mL; in [6], 0.831 µg/mL; in [9] it was 0.0638 µg/mL; in assay [8] it was 1.12 µg/mL. Besides, the results for the GI50 in assay [2], in assay [6] and in assay [8] were 0.0699 µg/mL, 0.239 µg/mL and 0.267 µg/mL (≈ 1.02 µM), respectively.
Consider `CCCCCCNC(=O)CCN(C(=O)O)S(=O)(=O)c1ccc(NC(=O)c2ccccc2)cc1`, for which the TGI in assay [1] was over 66.2 µM; in assay [2] it was over 59.8 µM; in [3], over 100 µM; in assay [4] it was over 100 µM; in assay [5], over 60.1 µM; in [6], over 100 µM. Moreover, the TGI in [9] was over 100 µM; in assay [7] it was over 100 µM; in assay [8] it was over 69.6 µM.
For `COC1=CC(=O)C2(C=C1OC)OC[C@H]1Oc3c(ccc4c3C=CC(C)(C)O4)C(=O)[C@H]12` (some centres not stated), the TGI is over 100 µM in assay [1]; over 100 µM in [2]; over 100 µM in assay [3]; over 100 µM in [4]; 85.6 µM in assay [5]; over 100 µM in [6]. Besides, the TGI in [7] and in assay [8] was over 100 µM in each case.
Take `CN1C/C(=C\c2ccccc2)C2=NN(C(N)=S)[C@H](c3ccccc3)[C@@H]2C1`: the TGI in [1], in assay [2], in assay [3], in assay [4], in assay [5] and in assay [6] was over 100 µM each time. The TGI in assay [9], in assay [7] and in assay [8] was over 100 µM in each case.
Regarding `COc1ccc(/C=C(\C#N)c2ccccn2)cc1OC`, the TGI in assay [1], in [2], in assay [3], in assay [4], in [5] and in assay [6] was over 100 µM in each case. Also, the TGI in assay [9], in assay [7] and in assay [8] was over 100 µM each time.
